# From article PMC12799524, “Putative new biomarkers for renal transporter-mediated drug-drug interactions: Characterization as substrates of organic cation transporter 2, multidrug and toxin extrusion protein 1, and other important drug transporters” (Drug Metabolism and Disposition, 2025)
# T1: human OCT2 (Homo sapiens, UniProt O15244)
# T1 sequence (O15244 1-555): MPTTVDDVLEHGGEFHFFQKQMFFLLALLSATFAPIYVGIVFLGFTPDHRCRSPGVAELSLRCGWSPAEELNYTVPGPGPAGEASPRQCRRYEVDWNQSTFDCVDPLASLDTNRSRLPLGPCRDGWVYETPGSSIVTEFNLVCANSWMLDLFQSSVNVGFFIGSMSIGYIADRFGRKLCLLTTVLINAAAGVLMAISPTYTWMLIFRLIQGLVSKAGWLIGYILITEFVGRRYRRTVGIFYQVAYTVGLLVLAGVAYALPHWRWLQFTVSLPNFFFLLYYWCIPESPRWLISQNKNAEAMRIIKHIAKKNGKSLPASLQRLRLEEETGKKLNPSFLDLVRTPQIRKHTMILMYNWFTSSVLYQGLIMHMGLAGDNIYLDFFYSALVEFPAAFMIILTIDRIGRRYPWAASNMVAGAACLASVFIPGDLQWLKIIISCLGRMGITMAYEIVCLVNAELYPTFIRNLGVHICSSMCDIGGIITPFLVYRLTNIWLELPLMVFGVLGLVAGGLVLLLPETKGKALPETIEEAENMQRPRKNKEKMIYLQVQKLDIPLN
# T2: MATE1 (Homo sapiens, UniProt Q96FL8)
# T2 sequence (Q96FL8 1-570): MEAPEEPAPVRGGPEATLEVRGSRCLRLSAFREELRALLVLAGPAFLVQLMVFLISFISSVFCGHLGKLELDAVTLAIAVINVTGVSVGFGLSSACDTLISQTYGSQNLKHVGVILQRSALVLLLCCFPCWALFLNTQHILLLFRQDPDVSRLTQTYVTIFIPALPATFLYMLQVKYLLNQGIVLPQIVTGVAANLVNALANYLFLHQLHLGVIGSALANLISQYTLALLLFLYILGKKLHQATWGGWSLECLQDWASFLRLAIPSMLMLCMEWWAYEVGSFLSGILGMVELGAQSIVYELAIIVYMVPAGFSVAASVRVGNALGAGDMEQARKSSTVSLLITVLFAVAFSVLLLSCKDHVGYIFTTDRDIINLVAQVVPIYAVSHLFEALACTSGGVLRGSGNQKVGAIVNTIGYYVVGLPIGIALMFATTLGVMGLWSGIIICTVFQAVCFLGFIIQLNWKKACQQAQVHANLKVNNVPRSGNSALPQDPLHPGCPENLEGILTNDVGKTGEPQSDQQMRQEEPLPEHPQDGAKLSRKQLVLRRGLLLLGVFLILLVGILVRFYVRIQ
# B1: human OCT2 (Homo sapiens) (protein)
# chain: MPTTVDDVLEHGGEFHFFQKQMFFLLALLSATFAPIYVGIVFLGFTPDHRCRSPGVAELSLRCGWSPAEELNYTVPGPGPAGEASPRQCRRYEVDWNQSTFDCVDPLASLDTNRSRLPLGPCRDGWVYETPGSSIVTEFNLVCANSWMLDLFQSSVNVGFFIGSMSIGYIADRFGRKLCLLTTVLINAAAGVLMAISPTYTWMLIFRLIQGLVSKAGWLIGYILITEFVGRRYRRTVGIFYQVAYTVGLLVLAGVAYALPHWRWLQFTVSLPNFFFLLYYWCIPESPRWLISQNKNAEAMRIIKHIAKKNGKSLPASLQRLRLEEETGKKLNPSFLDLVRTPQIRKHTMILMYNWFTSSVLYQGLIMHMGLAGDNIYLDFFYSALVEFPAAFMIILTIDRIGRRYPWAASNMVAGAACLASVFIPGDLQWLKIIISCLGRMGITMAYEIVCLVNAELYPTFIRNLGVHICSSMCDIGGIITPFLVYRLTNIWLELPLMVFGVLGLVAGGLVLLLPETKGKALPETIEEAENMQRPRKNKEKMIYLQVQKLDIPLN
# How the values were obtained:
# [1] = target: T1, human OCT2; assay: Uptake assay in HEK-OCT2 vs HEK-VC cells; format: in vitro ADME; design: expressed in transfected cells; host or cells: HEK293 (HEK-OCT2)
# Protocol: (§1) Transport experiments were performed 48 hours after seeding.
# (§2) The intracellular background of all 5 compounds in HEK cells at the beginning of the uptake experiments was investigated 48 hours after seeding without incubation with transport buffer (ie, 0 minutes). […] Then, cells were lysed with ice-cold 80% MeOH containing the aforementioned recovery standards. In addition, the impact of a 5-minute incubation period with transport buffer without added substance was investigated.
# [2] = target: T2, MATE1; assay: Uptake assay in HEK-MATE1 vs HEK-VC cells (pH 8.0); settings: 0 minutes and 5 minutes without added substance
# Protocol: as §1, §2
# [3] = substrate: NCCc1c[nH]c2ccc(O)cc12
Molecule,"Intracellular background in HEK-OCT2 cells compared to HEK-VC cells ([1]; 0 minutes, without added substance)",Intracellular background in HEK-OCT2 cells compared to HEK-VC cells ([1]; 5 minutes in transport buffer without added substance),Intracellular background in HEK-MATE1 cells compared to HEK-VC cells [2],Km [3] [µM]
"N=C(N)NCCCC(=O)O [4-Guanidinobutanoic acid, 4-guanidinobutanoic acid]",significantly higher,reduced to the amount in HEK-VC cells,significantly lower,–
B1,–,–,–,412.0 ± 143.6
